In US20260285850A1, “SUBSTITUTED OXAZOLIDINONES AND IMIDAZOLINONES AS HERBICIDES” (FMC CORPORATION, priority 2023, published 2026):

Experiments:
Type in all cases: in vivo
[1] = system: ragweed (common ragweed, Ambrosia artemisiifolia); assay: Test A preemergence soil spray, visual injury rating 0-100; conditions: 10 days
How it was run: (§1)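 Grow plants in loam soil blended with sand. Apply formulated compound (non-phytotoxic solvent, surfactant) as a directed soil spray before emergence, or to plants at the one- to two-leaf stage after emergence. Hold in greenhouse 10 days, then rate injury visually versus untreated controls on a 0-100 scale.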

[2] = system: soybean (Glycine max); assay: as above; conditions: 10 days
How it was run: as §1

[3] = system: oat, wild (wild oat, Avena fatua); assay: as above; conditions: 10 days
How it was run: as §1

[4] = system: corn (Zea mays); assay: as above; conditions: 10 days
How it was run: as §1

[5] = system: blackgrass (Alopecurus myosuroides); assay: as above; conditions: 10 days
How it was run: as §1

[6] = system: barnyardgrass (Echinochloa crus-galli); assay: as above; conditions: 10 days
How it was run: as §1

[7] = system: wheat (Triticum aestivum); assay: as above; conditions: 10 days
How it was run: as §1

[8] = system: palmer (palmer amaranth, palmer pigweed, Amaranthus palmeri); assay: as above; conditions: 10 days
How it was run: as §1

[9] = system: green foxtail (Setaria viridis); assay: as above; conditions: 10 days
How it was run: as §1

[10] = system: kochia (Bassia scoparia); assay: as above; conditions: 10 days
How it was run: as §1

[11] = system: ryegrass, Italian (italian ryegrass, Lolium multiflorum); assay: as above; conditions: 10 days
How it was run: as §1

[12] = system: barnyardgrass (Echinochloa crusgalli); assay: Test B flooded paddy test, visual plant response rating 0-100; conditions: 250 g ai/ha, Flood, applied to paddy water, evaluated after 13 days
How it was run: (§2)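 Plants were grown to the 2-leaf stage, then pots were flooded to 3 cm above the soil and compound was applied directly to the paddy water, with that depth kept throughout.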

[13] = system: rice (Oryza sativa); assay: as above; conditions: 250 g ai/ha, Flood, applied to paddy water, evaluated after 13 days
How it was run: as §2

[14] = system: sedge, umbrella (small-flower umbrella sedge, Cyperus difformis); assay: as above; conditions: 250 g ai/ha, Flood, applied to paddy water, evaluated after 13 days
How it was run: as §2

[15] = system: ducksalad (Heteranthera limosa); assay: as above; conditions: 250 g ai/ha, Flood, applied to paddy water, evaluated after 13 days
How it was run: as §2

[16] = system: ragweed (common ragweed, Ambrosia artemisiifolia); assay: Test A postemergence application, visual injury rating 0-100; conditions: for Ragweed plant response rating (0-100): postemergence, 0 = no effect, 100 = complete control; for Ragweed plant response rating (0 to 100 scale): Postemergence
How it was run: as §1

[17] = system: soybean (Glycine max); assay: as above; conditions: for Soybean plant response rating (0-100): postemergence, 0 = no effect, 100 = complete control; for Soybean plant response rating (0 to 100 scale): Postemergence
How it was run: as §1

[18] = system: horseweed (Erigeron canadensis); assay: as above; conditions: for Horseweed plant response rating (0 to 100 scale): Postemergence
How it was run: as §1

[19] = system: oat, wild (wild oat, Avena fatua); assay: as above; conditions: for Oat, Wild plant response rating (0-100): postemergence, 0 = no effect, 100 = complete control; for Oat, Wild plant response rating (0 to 100 scale): Postemergence
How it was run: as §1

[20] = system: corn (Zea mays); assay: as above; conditions: for Corn plant response rating (0-100): postemergence, 0 = no effect, 100 = complete control; for Corn plant response rating (0 to 100 scale): Postemergence
How it was run: as §1

[21] = system: blackgrass (Alopecurus myosuroides); assay: as above; conditions: for Blackgrass plant response rating (0-100): postemergence, 0 = no effect, 100 = complete control; for Blackgrass plant response rating (0 to 100 scale): Postemergence
How it was run: as §1

[22] = system: barnyardgrass (Echinochloa crus-galli); assay: as above; conditions: for Barnyardgrass plant response rating (0-100): postemergence, 0 = no effect, 100 = complete control; for Barnyardgrass plant response rating (0 to 100 scale): Postemergence
How it was run: as §1

[23] = system: wheat (Triticum aestivum); assay: as above; conditions: for Wheat plant response rating (0-100): postemergence, 0 = no effect, 100 = complete control; for Wheat plant response rating (0 to 100 scale): Postemergence
How it was run: as §1

[24] = system: palmer (palmer amaranth, palmer pigweed, Amaranthus palmeri); assay: as above
How it was run: as §1

[25] = system: green foxtail (Setaria viridis); assay: as above; conditions: for Foxtail, Green plant response rating (0-100): postemergence, 0 = no effect, 100 = complete control; for Foxtail, Green plant response rating (0 to 100 scale): Postemergence
How it was run: as §1

[26] = system: kochia (Bassia scoparia); assay: as above; conditions: for Kochia plant response rating (0-100): postemergence, 0 = no effect, 100 = complete control; for Kochia plant response rating (0 to 100 scale): Postemergence
How it was run: as §1

[27] = system: ryegrass, Italian (italian ryegrass, Lolium multiflorum); assay: as above; conditions: for Ryegrass, Italian plant response rating (0-100): postemergence, 0 = no effect, 100 = complete control; for Ryegrass, Italian plant response rating (0 to 100 scale): Postemergence
How it was run: as §1

[28] = 62 g ai/ha, 0 = no effect, 100 = complete control
[29] = 16 g ai/ha, greenhouse 10 days, 0 no effect, 100 complete control
[30] = 31 g ai/ha, 0 = no effect, 100 = complete control
[31] = 125 g ai/ha, 0 = no effect, 100 = complete control
[32] = 125 g ai/ha, 10 days, 0 is no effect, 100 is complete control
[33] = 31 g ai/ha, postemergence, 10 days, 0 = no effect, 100 = complete control

## CCOC(=O)C1=CCC(NC(=O)C2(C)CN(c3cc(Cl)cc(Cl)c3)C(=O)O2)C1 (stereo not drawn) [Compound 113]
[1]; 16 g ai/ha, 0 to 100 scale
  Ragweed plant response rating: 0
[1]; [28]
  Ragweed plant response rating (0-100): 0
[2]; 16 g ai/ha, 0 to 100 scale
  Soybean plant response rating: 0
[2]; [28]
  Soybean plant response rating (0-100): 0
[3]; 16 g ai/ha, 0 to 100 scale
  Oat, Wild plant response rating: 0
[3]; [28]
  Oat, Wild plant response rating (0-100): 0
[4]; 16 g ai/ha, 0 to 100 scale
  Corn plant response rating: 0
[4]; [28]
  Corn plant response rating (0-100): 0
[5]; 16 g ai/ha, 0 to 100 scale
  Blackgrass plant response rating: 0
[5]; [28]
  Blackgrass plant response rating (0-100): 0
[6]; 16 g ai/ha, 0 to 100 scale
  Barnyardgrass plant response rating: 0
[6]; [28]
  Barnyardgrass plant response rating (0-100): 0
[7]; 16 g ai/ha, 0 to 100 scale
  Wheat plant response rating: 0
[7]; [28]
  Wheat plant response rating (0-100): 0
[8]; 16 g ai/ha, 0 to 100 scale
  Pigweed, Palmer plant response rating: 0
[8]; [28]
  Pigweed, Palmer plant response rating (0-100): 20
[9]; 16 g ai/ha, 0 to 100 scale
  Foxtail, Green plant response rating: 0
[9]; [28]
  Foxtail, Green plant response rating (0-100): 0
[10]; 16 g ai/ha, 0 to 100 scale
  Kochia plant response rating: 0
[10]; [28]
  Kochia plant response rating (0-100): 0
[11]; 16 g ai/ha, 0 to 100 scale
  Ryegrass, Italian plant response rating: 0
[11]; [28]
  Ryegrass, Italian plant response rating (0-100): 0
[12]
  Plant response rating, Barnyardgrass (0 to 100 scale, 0 is no effect and 100 is complete control): 0
[13]
  Plant response rating, Rice (0 to 100 scale, 0 is no effect and 100 is complete control): 0
[14]
  Plant response rating, Sedge, Umbrella (0 to 100 scale, 0 is no effect and 100 is complete control): 0
[15]
  Plant response rating, Ducksalad (0 to 100 scale, 0 is no effect and 100 is complete control): 0
[16]; 62 g ai/ha, 10 days
  Ragweed plant response rating (0-100): 30
[16]; [29]
  Ragweed plant response rating (0 to 100 scale): 0
[17]; 62 g ai/ha, 10 days
  Soybean plant response rating (0-100): 0
[17]; [29]
  Soybean plant response rating (0 to 100 scale): 0
[18]; [29]
  Horseweed plant response rating (0 to 100 scale): 0
[19]; 62 g ai/ha, 10 days
  Oat, Wild plant response rating (0-100): 0
[19]; [29]
  Oat, Wild plant response rating (0 to 100 scale): 0
[20]; 62 g ai/ha, 10 days
  Corn plant response rating (0-100): 20
[20]; [29]
  Corn plant response rating (0 to 100 scale): 0
[21]; 62 g ai/ha, 10 days
  Blackgrass plant response rating (0-100): 20
[21]; [29]
  Blackgrass plant response rating (0 to 100 scale): 0
[22]; 62 g ai/ha, 10 days
  Barnyardgrass plant response rating (0-100): 10
[22]; [29]
  Barnyardgrass plant response rating (0 to 100 scale): 0
[23]; 62 g ai/ha, 10 days
  Wheat plant response rating (0-100): 0
[23]; [29]
  Wheat plant response rating (0 to 100 scale): 0
[24]; 62 g ai/ha, postemergence, 10 days, 0 = no effect, 100 = complete control
  Pigweed, Palmer plant response rating (0-100): 10
[24]; Postemergence, 16 g ai/ha, greenhouse 10 days, 0 no effect, 100 complete control
  Pigweed, Palmer plant response rating (0 to 100 scale): 0
[25]; 62 g ai/ha, 10 days
  Foxtail, Green plant response rating (0-100): 20
[25]; [29]
  Foxtail, Green plant response rating (0 to 100 scale): 0
[26]; 62 g ai/ha, 10 days
  Kochia plant response rating (0-100): 0
[26]; [29]
  Kochia plant response rating (0 to 100 scale): 0
[27]; 62 g ai/ha, 10 days
  Ryegrass, Italian plant response rating (0-100): 0
[27]; [29]
  Ryegrass, Italian plant response rating (0 to 100 scale): 0

## CNC(=O)C1CC(NC(=O)C2(C)CN(c3cc(F)cc(F)c3)C(=O)O2)CO1 (stereo not drawn) [Compound 8]
[1]; [30]
  Ragweed plant response rating (0-100): 60
[1]; [31]
  Ragweed plant response rating (0 to 100 scale): 0
[2]; [30]
  Soybean plant response rating (0-100): 0
[2]; [31]
  Soybean plant response rating (0 to 100 scale): 0
[3]; [30]
  Oat, Wild plant response rating (0-100): 0
[3]; [31]
  Oat, Wild plant response rating (0 to 100 scale): 20
[4]; [30]
  Corn plant response rating (0-100): 0
[4]; [31]
  Corn plant response rating (0 to 100 scale): 0
[5]; [30]
  Blackgrass plant response rating (0-100): 0
[5]; [31]
  Blackgrass plant response rating (0 to 100 scale): 50
[6]; [30]
  Barnyardgrass plant response rating (0-100): 0
[6]; [31]
  Barnyardgrass plant response rating (0 to 100 scale): 10
[7]; [30]
  Wheat plant response rating (0-100): 0
[7]; [31]
  Wheat plant response rating (0 to 100 scale): 80
[8]; [30]
  Amaranth, Palmer plant response rating (0-100): 0
[8]; [31]
  Amaranth, Palmer plant response rating (0 to 100 scale): 0
[9]; [30]
  Foxtail, Green plant response rating (0-100): 0
[9]; [31]
  Foxtail, Green plant response rating (0 to 100 scale): 40
[10]; [30]
  Kochia plant response rating (0-100): 0
[10]; [31]
  Kochia plant response rating (0 to 100 scale): 70
[11]; [30]
  Ryegrass, Italian plant response rating (0-100): 0
[11]; [31]
  Ryegrass, Italian plant response rating (0 to 100 scale): 60
[12]
  Plant response rating, Barnyardgrass (0 to 100 scale, 0 is no effect and 100 is complete control): 0
[13]
  Plant response rating, Rice (0 to 100 scale, 0 is no effect and 100 is complete control): 0
[14]
  Plant response rating, Sedge, Umbrella (0 to 100 scale, 0 is no effect and 100 is complete control): 0
[15]
  Plant response rating, Ducksalad (0 to 100 scale, 0 is no effect and 100 is complete control): 0
[16]; 31 g ai/ha, 10 days
  Ragweed plant response rating (0-100): 0
[16]; [32]
  Ragweed plant response rating (0 to 100 scale): 0
[17]; 31 g ai/ha, 10 days
  Soybean plant response rating (0-100): 0
[17]; [32]
  Soybean plant response rating (0 to 100 scale): 0
[18]; [33]
  Horseweed plant response rating (0-100): 30
[18]; [32]
  Horseweed plant response rating (0 to 100 scale): 10
[19]; 31 g ai/ha, 10 days
  Oat, Wild plant response rating (0-100): 0
[19]; [32]
  Oat, Wild plant response rating (0 to 100 scale): 0
[20]; 31 g ai/ha, 10 days
  Corn plant response rating (0-100): 0
[20]; [32]
  Corn plant response rating (0 to 100 scale): 0
[21]; 31 g ai/ha, 10 days
  Blackgrass plant response rating (0-100): 0
[21]; [32]
  Blackgrass plant response rating (0 to 100 scale): 90
[22]; 31 g ai/ha, 10 days
  Barnyardgrass plant response rating (0-100): 0
[22]; [32]
  Barnyardgrass plant response rating (0 to 100 scale): 0
[23]; 31 g ai/ha, 10 days
  Wheat plant response rating (0-100): 0
[23]; [32]
  Wheat plant response rating (0 to 100 scale): 20
[24]; [33]
  Amaranth, Palmer plant response rating (0-100): 0
[24]; Postemergence, 125 g ai/ha, 10 days, 0 is no effect, 100 is complete control
  Amaranth, Palmer / Pigweed, Palmer plant response rating (0 to 100 scale): 0
[25]; 31 g ai/ha, 10 days
  Foxtail, Green plant response rating (0-100): 0
[25]; [32]
  Foxtail, Green plant response rating (0 to 100 scale): 0
[26]; 31 g ai/ha, 10 days
  Kochia plant response rating (0-100): 0
[26]; [32]
  Kochia plant response rating (0 to 100 scale): 20
[27]; 31 g ai/ha, 10 days
  Ryegrass, Italian plant response rating (0-100): 0
[27]; [32]
  Ryegrass, Italian plant response rating (0 to 100 scale): 0
